Test results from US11013249B2, “Compositions for controlled release of volatile compounds” (University of Guelph, priority 2016, dated 2021).
≈ marks a conversion by molar mass, not a printed value. Where two headings read alike, the source gives them in different places.

How the values were obtained:
[1] = cited from earlier work
P. Fluorescens = assay: Inhibitory effects of AITC, diacetyl and cinnamaldehyde vapour; format: cell-based, Pseudomonas fluorescens P33; details: 25° C.
Method: (§1) P. fluorescens was selected as a model spoilage bacteria, while mould and yeast were isolated from spoiled mung bean sprouts with bacteria excluded by cultivating in potato dextrose broth (PDB) (Sigma, Oakville, ON, Canada) at pH 5.6±0.2. Yeast and P. fluorescens stocks were cultivated in PDB and trypticase soy broth (TSB) (Bacto, BD, Sparks, USA), respectively, at 30° C. for 24 h and diluted with sterile saline solution (NaCl, 8.5 g/L water) to a concentration of 10^6 CFU/mL. An aliquot of 50 μL of the prepared yeast or bacteria suspension was spread on potato dextrose agar (PDA) (Difco, BD, Sparks, USA) or trypticase soy agar (TSA) (Bacto, BD, Sparks, USA), respectively, in 5 cm diameter petri dishes (Fisher Scientific, Ottawa, ON, Canada). Mycelium of mould was inoculated as one spot at the center of the PDA dishes. Two freshly inoculated petri dishes of same microorganism, with their lids removed, were placed in a one-liter glass jar. […] The growth of the microorganisms was monitored by the colony formation for 3 days.

Yeast = assay: as above; format: cell-based, yeast isolated from mung bean sprouts
Method: as §1

Mould = assay: as above; format: cell-based, mould isolated from mung bean sprouts; details: 25° C.
Method: as §1

[2] = Release of diacetyl and AITC vapours from PEG blends into jar headspace (automatic headspace sampling, GC); format: physicochemical; details: from 4:1 PEG400:PEG10K
Method: PEG400 and PEG10K were blended at 1:4, 2:3, 3:2 and 4:1 (w/w) ratios. All PEG blends (20±1 g) were heated to 90° C. in a 20 mL glass vial for 20 min to ensure the polymers were melted and thoroughly mixed with the aid of a magnetic stir bar. […] The vials were capped, kept in a 75° C. oven and continuously being stirred with the magnetic stir bar for 15 min. The molten mixtures were injected into a mould fabricated from glass (2 cm×1.5 cm×0.1 cm) and allowed to set. One face of the mould was lined with aluminum tape (adhesive side facing away from PEG), which acted as a baking material for the solidified PEG. Upon solidification, diacetyl/AITC impregnated PEG sheeting was formed.
With the aid of a controller (SRI Instruments Inc., Las Vegas, Nev., USA), the headspace air in the glass jar was sampled automatically by means of a vacuum pump and two stream selection valves (Model EMTCA-CE, VICI Valco Instruments Co. Inc., Houston, Texax, USA), and injected into a gas chromatograph equipped with flame ionization detector (GC 6890, Agilent Technologies Inc., Santa Clara, Calif., USA.). Both the detector and oven temperatures were set at 150° C. The flow rates of the carrier gas (N2), compressed air and hydrogen were 30 mL/min, 200 mL/min and 30 mL/min, respectively. Retention time and peak area were analyzed by using chromatographic software (Peak Simple 393-32 bit, SRI Instruments, Torrance, Calif., USA). After each sampling, an equal amount of dry air was injected back into the jar to maintain the interior pressure at one atmosphere.
Diacetyl or AITC release profiles were generated by plotting Mn versus time.
The release profiles of the antimicrobial compounds were fitted in a model which combines first order kinetics and zero order kinetics: C=Ce×(1−e^−kt)+αt (Eq. 3) where C is the compound concentration at time t; Ce is the equilibrium concentration for diffusion; k is the diffusion rate constant; α is the rate of zero order kinetics. Models are fitted to the data before reaching the equilibrium.

[3] = cited from earlier work; remark: listed apart in the source
[4] = Amount 1 mg in one-liter jar, 25° C.
[5] = Amount 2 mg in one-liter jar, 25° C.
[6] = Amount 3 mg in one-liter jar, 25° C.

In the case of `CC(=O)C(C)=O` [Diacetyl, 2,3-butanedione], the Saturated vapor pressure ([1]; 5° C.) is listed as about 2400 Pa, the “vapor pressure (volatility)” value ([1]; 20° C.) is listed as 6.9 kPa and the Saturated vapor pressure ([1]; 45° C.) is listed as about 20100 Pa. For the same molecule, the “P. Fluorescens day1, visual colony number” value (P. Fluorescens; Amount 1 mg in one-liter jar) was “+ (less than 15)”, the “P. Fluorescens day2, visual colony number” value (P. Fluorescens; Amount 1 mg in one-liter jar) was “+ (less than 15)” and the “effective concentration against P. fluorescens” value (P. Fluorescens; vapour in one-liter jar) was 2 mg/L. For the same molecule, the “Yeast day1, visual colony number” value (Yeast; [4]) was “+ (less than 15)”, the “Yeast day2, visual colony number” value (Yeast; [4]) was “+ (less than 15)” and the “Yeast day3, visual colony number” value (Yeast; [4]) was “+ (less than 15)”. For the same molecule, the “Yeast day1, visual colony number” value (Yeast; [5]) was “+ (less than 15)”, the “Yeast day2, visual colony number” value (Yeast; [5]) was “+ (less than 15)” and the “Yeast day3, visual colony number” value (Yeast; [5]) was “+ (less than 15)”. The “Yeast day2, visual colony number” value (Yeast; [6]) was “+ (less than 15)”, the “Yeast day3, visual colony number” value (Yeast; [6]) was “+ (less than 15)” and the MIC (Yeast; established on yeast, mould and P. fluorescens from Table 8, read-out: minimum inhibition concentration (MIC)) was 4 mg/L (≈ 46.5 µM). The “effective concentration against yeast” value (Yeast; vapour in one-liter jar, 25° C.) was 4 mg/L, the “Mould day1, visual colony number” value (Mould; Amount 1 mg in one-liter jar) was “+ (less than 15)” and the “Mould day2, visual colony number” value (Mould; Amount 1 mg in one-liter jar) was “+ (less than 15)”. For the same molecule, the “Mould day3, visual colony number” value (Mould; Amount 1 mg in one-liter jar) was “+ (less than 15)”, the “concentration that inhibited the growth of mould for three days” value (Mould; vapour in one-liter jar) was 2 mg/L and the Ce ([2]; 0 μL water, 5° C.) was 0.631 mg/L. It also gave a k ([2]; 0 μL water, 5° C.) of 0.00764 h⁻¹, a α ([2]; 0 μL water, 5° C.) of 0.000149 h⁻¹ and a Ce ([2]; 0 μL water, 25° C.) of 1.965 mg/L. For the same molecule, the k ([2]; 0 μL water, 25° C.) was 0.00837 h⁻¹, the α ([2]; 0 μL water, 25° C.) was 0.000258 h⁻¹ and the “maximum released after 42 h” value ([2]; 5° C.) was 1.98 mg. For the same molecule, the Ce ([2]; 10 μL water, 5° C.) was 1.074 mg/L, the k ([2]; 10 μL water, 5° C.) was 0.00484 h⁻¹ and the α ([2]; 10 μL water, 5° C.) was 0.000236 h⁻¹. For the same molecule, the Ce ([2]; 10 μL water, 25° C.) was 1.701 mg/L, the k ([2]; 10 μL water, 25° C.) was 0.01425 h⁻¹ and the α ([2]; 10 μL water, 25° C.) was 0.00034 h⁻¹. For the same molecule, the “maximum released after 42 h” value ([2]; 25° C.) was 2.85 mg, the Ce ([2]; 100 μL water, 5° C.) was 1.418 mg/L and the k ([2]; 100 μL water, 5° C.) was 0.00159 h⁻¹. For the same molecule, the α ([2]; 100 μL water, 5° C.) was 0.000253 h⁻¹, the Ce ([2]; 100 μL water, 25° C.) was 1.901 mg/L and the k ([2]; 100 μL water, 25° C.) was 0.01281 h⁻¹. For the same molecule, the α ([2]; 100 μL water, 25° C.) was 0.000272 h⁻¹, the Ce ([2]; 1000 μL water, 5° C.) was 0.151 mg/L and the k ([2]; 1000 μL water, 5° C.) was 0.01321 h⁻¹. It also gave a α ([2]; 1000 μL water, 5° C.) of 0.000301 h⁻¹, a Ce ([2]; 1000 μL water, 25° C.) of 2.156 mg/L and a k ([2]; 1000 μL water, 25° C.) of 0.00728 h⁻¹. For the same molecule, the α ([2]; 1000 μL water, 25° C.) was 0.000279 h⁻¹.
For `Cc1ccc(C(C)C)cc1O` [carvacrol, 5-isopropyl-2-methylphenol], the vapor pressure ([1]; 22° C.) is listed as 0.0042 kPa, the vapor pressure ([1]; 25° C.) is listed as 0.0087 kPa and the “solubility in water” value [3] is listed as “low solubility in water”.
